Test results taken from ChEMBL document CHEMBL1201862, “PubChem BioAssay data set” (2004).
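Assay format: 96-well plates, 48-hour exposure. GI50: concentration for 50% inhibition of growth.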 Active and inactive are the calls of the source. Rule as the data show it: active = GI50 up to about 1.1 µM and inactive = higher.

Legend:
Assay in all cases: DTP human tumour cell line panel, 48 h
[1] = tested on: HOP-92
[2] = tested on: A498
[3] = tested on: TK-10
[4] = tested on: SF-539
[5] = tested on: SF-268
[6] = tested on: DU-145
[7] = tested on: K562
[8] = tested on: MDA-MB-435
[9] = tested on: A549
[10] = tested on: SNB-75
[11] = tested on: NCI-H226
[12] = tested on: HCT-116
[13] = tested on: UACC-257
[14] = tested on: NCI-H23
[15] = tested on: M14
[16] = tested on: OVCAR-4
[17] = tested on: SK-MEL-2
[18] = tested on: LOX IMVI
[19] = tested on: MOLT-4
[20] = tested on: RPMI-8226

Measured: GI50

CCSc1nc(N/N=C/c2cccs2)c2cnn(CO)c2n1
inactive: [1] 16.9 µM | [2] 2.18 µM | [3] 6.14 µM | [4] 10.5 µM | [5] 6.22 µM | [6] 10.3 µM | [7] 4.13 µM | [8] 6.25 µM | [9] 7 µM | [10] 14.2 µM | [11] 3.1 µM | [12] 5.01 µM | [13] 11.6 µM | [14] 7.05 µM | [15] 6.11 µM | [16] 23.6 µM | [17] 10.6 µM

C=CC[C@@H](N)C(=O)N(C)[C@@H](C)[C@@H](O)c1ccccc1
inactive: [1] 54.6 µM | [2] > 100 µM | [3] > 100 µM | [4] > 100 µM | [5] > 100 µM | [6] > 100 µM | [8] > 100 µM | [9] > 100 µM | [18] > 100 µM | [10] 5.77 µM | [11] > 100 µM | [12] > 100 µM | [13] > 100 µM | [14] > 100 µM | [15] > 100 µM | [16] > 100 µM | [19] > 100 µM | [17] > 100 µM

N#CC(C#N)=C(N)/C(C#N)=C/c1ccc2ccccc2n1
inactive: [1] 18.3 µM | [2] > 100 µM | [3] > 100 µM | [5] > 100 µM | [6] > 100 µM | [7] 32.6 µM | [8] 30.5 µM | [9] > 100 µM | [18] 19.3 µM | [10] 25.8 µM | [11] 93.5 µM | [12] 15.1 µM | [13] 48.8 µM | [14] 31.6 µM | [15] 33.7 µM | [16] 35.4 µM | [19] 30.3 µM | [20] 36.9 µM | [17] 35 µM

CC(C)CNP(=O)(NCC(C)C)Oc1ccc(CC(NC(=O)OCc2ccccc2)C(=O)OCc2ccccc2)cc1 (stereo not given)
inactive: [1] 61.4 µM | [2] 22.5 µM | [3] 31.4 µM | [5] 17.6 µM | [6] 9.46 µM | [7] 20 µM | [8] 10 µM | [9] 47.5 µM | [18] 16.1 µM | [10] 19.5 µM | [11] 56.1 µM | [12] 18.7 µM | [13] 24.8 µM | [14] 15.3 µM | [15] 24.3 µM | [16] 18.3 µM | [19] 13.9 µM | [20] 14.5 µM | [17] 18.5 µM

O=C1c2c(O)cc(O)cc2C(C2OC(CO)C(O)C(O)C2O)c2cc(CO)cc(O)c21 (stereo not given)
inactive: [1] > 100 µM | [2] > 100 µM | [3] > 100 µM | [5] > 100 µM | [6] > 100 µM | [7] > 100 µM | [8] > 100 µM | [9] > 100 µM | [10] 22.5 µM | [11] > 100 µM | [12] > 100 µM | [13] > 100 µM | [14] > 100 µM | [15] > 100 µM | [16] > 100 µM | [19] > 100 µM | [20] > 100 µM

CC(C)(OCc1ccccc1)c1ccccc1P(c1ccccc1)c1ccccc1
inactive: [1] 35.2 µM | [2] 89.3 µM | [3] 37.1 µM | [4] > 100 µM | [5] 83.8 µM | [6] 82.6 µM | [7] 45.3 µM | [8] 37.9 µM | [9] 38.7 µM | [10] > 100 µM | [11] 69.2 µM | [12] 40 µM | [13] 22.3 µM | [14] 21.7 µM | [15] 43.6 µM | [16] 31.3 µM | [19] 17.2 µM | [20] 4.04 µM | [17] 73.5 µM

Cn1c(C(C#N)c2nc(Cl)ncc2Br)nc2ccccc21 (stereo not given)
inactive: [1] > 100 µM | [2] > 100 µM | [3] > 100 µM | [4] 44.5 µM | [5] > 100 µM | [6] > 100 µM | [8] > 100 µM | [9] > 100 µM | [18] > 100 µM | [10] 82 µM | [11] > 100 µM | [12] > 100 µM | [13] > 100 µM | [14] > 100 µM | [15] > 100 µM | [16] > 100 µM | [19] > 100 µM | [20] > 100 µM

c1ccc(COc2nc3cc(C45CC6CC(CC(C6)C4)C5)ccc3[nH]2)cc1
inactive: [1] 7.29 µM | [2] 23.3 µM | [3] 4.65 µM | [5] 31.3 µM | [6] 20.1 µM | [7] 1.19 µM | [8] 8.95 µM | [9] 16.5 µM | [18] 12.1 µM | [10] 29.6 µM | [11] 12 µM | [12] 9.08 µM | [13] 2.92 µM | [14] 6.3 µM | [15] 17.2 µM | [16] > 31.3 µM | [19] 3.35 µM | [20] 5.07 µM | [17] 11.2 µM

CC(=O)/N=C1\NC(=O)/C(=C/c2ccc(/C=C3/C(=O)N/C(=N\C(C)=O)N3C)cc2)N1C
inactive: [1] > 100 µM | [2] > 100 µM | [3] > 100 µM | [4] > 100 µM | [5] > 100 µM | [6] > 100 µM | [8] > 100 µM | [9] > 100 µM | [18] > 100 µM | [10] > 100 µM | [11] > 100 µM | [12] > 100 µM | [13] > 100 µM | [14] > 100 µM | [15] > 100 µM | [16] > 100 µM | [19] > 100 µM | [17] > 100 µM

C=C(C)[C@@H]1CC[C@]2(C(=O)OC)CC[C@]3(C)[C@H](CC[C@@H]4[C@@]5(C)CC[C@H](O)C(C)(C)[C@@H]5CC[C@]43C)[C@@H]12 [METHYL BETULINATE]
inactive: [1] 19.4 µM | [2] 18.9 µM | [3] > 10 µM | [4] 13.7 µM | [5] 21.4 µM | [6] 39.8 µM | [7] 20.5 µM | [8] 21 µM | [9] 17.7 µM | [18] 18.4 µM | [10] 21.6 µM | [11] 20 µM | [12] 17.4 µM | [13] 19.3 µM | [14] 30.3 µM | [15] 35.4 µM | [19] 18.8 µM

COc1cc(O)cc(/C=C/c2ccc(O)cc2)c1
inactive: [1] 21.6 µM | [2] 33.1 µM | [3] 29.4 µM | [4] 35.6 µM | [5] 49.1 µM | [6] 39 µM | [7] 28.2 µM | [8] 31.3 µM | [9] 27.7 µM | [10] 90.4 µM | [11] 24.7 µM | [12] 32 µM | [13] 40.8 µM | [14] 26.7 µM | [15] 24.3 µM | [16] 44.6 µM | [19] 36 µM | [20] 4.07 µM | [17] 52.7 µM

CC1(C)OC2OC(COC(=O)c3ccc(C#N)cc3)C3OC(C)(C)OC3C2O1 (stereo not given)
inactive: [2] > 75 µM | [3] > 75 µM | [4] > 75 µM | [5] > 75 µM | [6] > 75 µM | [7] > 75 µM | [8] > 75 µM | [9] > 75 µM | [18] > 75 µM | [10] > 75 µM | [11] > 75 µM | [12] > 75 µM | [13] > 75 µM | [14] > 75 µM | [15] > 75 µM | [16] > 75 µM | [19] > 75 µM | [20] 57.8 µM | [17] > 75 µM

COC(=O)N1N=C(c2ccccc2)C1c1ccccc1 (stereo not given)
inactive: [2] 24 µM | [3] 70.1 µM | [4] 22.9 µM | [5] 62.7 µM | [6] 49.2 µM | [7] 23.8 µM | [8] 33.7 µM | [9] 31 µM | [18] 26.2 µM | [10] 36 µM | [11] 21.8 µM | [12] 33.3 µM | [13] 24.5 µM | [14] 24.8 µM | [15] 34.5 µM | [16] 25.8 µM | [19] 28.1 µM | [20] 26.7 µM | [17] 34.5 µM

CC(C)(C)OC(=O)C1C(=O)NC(=O)CC1CC(OCc1ccccc1)C(COCc1ccccc1)OCc1ccccc1 (stereo not given)
inactive: [1] 11.9 µM | [2] 26.5 µM | [3] > 100 µM | [4] 10.9 µM | [5] 11.3 µM | [6] 23.6 µM | [7] 5.19 µM | [8] 5.3 µM | [9] 5.06 µM | [18] 10.9 µM | [11] 10.9 µM | [12] 5.36 µM | [13] 15.5 µM | [14] 10.1 µM | [15] 14 µM | [16] 6.55 µM | [19] 2.88 µM | [20] 3.07 µM

O=C(COc1ccc(Cl)c(Cl)c1)N(Cc1ccccc1)Cc1ccc[n+](Cc2ccc(Cl)cc2S(=O)(=O)F)c1
inactive: [1] 50.8 µM | [2] > 100 µM | [3] 53.3 µM | [4] 12.9 µM | [5] > 100 µM | [6] > 100 µM | [7] 53 µM | [8] 29.9 µM | [9] > 100 µM | [10] > 100 µM | [11] > 100 µM | [12] > 100 µM | [13] 35.4 µM | [14] 41.3 µM | [15] 38.5 µM | [16] > 100 µM | [19] 21.4 µM | [20] 13.3 µM | [17] 25.4 µM
